Measurements reported in patent US8674109B2, “Pesticidal compositions” (Dow AgroSciences, LLC., priority 2009, dated 2014).

How the values were obtained:
Assay type in all cases: in vivo
[1] = system: corn earworm (CEW; Helicoverpa zea: Lepidoptera); assay: Insecticidal test for corn earworm, 128-well diet tray assay
How it was run: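 Second-instar larvae, three to five per well, placed on artificial diet treated with 50 μg/cm^2 compound applied in 90:10 acetone-water and dried. Held six days at 25° C., 14:10 light-dark. Percent mortality scored per well and averaged over eight wells.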

[2] = system: beet armyworm (BAW; Spodoptera exigua: Lepidoptera); assay: Insecticidal test for beet armyworm, 128-well diet tray assay
How it was run: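 Three to five second-instar larvae per well fed on artificial diet surface-treated with 50 μg/cm^2 compound (applied in 90:10 acetone-water, dried). Trays were held six days at 25 °C, 14:10 light-dark. Percent mortality was averaged across eight wells.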

[3] = system: green peach aphid (Myzus persicae); assay: Insecticidal test for green peach aphid in foliar spray assay on cabbage seedlings
How it was run: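 Cabbage seedlings carrying 20-50 aphids (adults and nymphs) were sprayed to runoff with compound at 200 ppm in acetone/methanol diluted in 0.025% Tween 20, with four pots per treatment. After three days at about 25 °C and 40% RH, live aphids were counted. Percent control was Abbott-corrected against solvent-check plants.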

Compound	% Mortality CEW 50 μg/cm^2 [1]	% Mortality BAW 50 μg/cm^2 [2]	% Mortality GPA 200 ppm [3]
CC(C)(C)OC(=O)Nc1ccc(-c2ncn(-c3ccc(OC(F)(F)F)cc3)n2)cc1 [Compound 25]	A (50-100)	A (50-100)	B (Less than 80)
COc1ccc(CC(C)OC(=O)Nc2ccc(-c3ncn(-c4ccc(OC(F)(F)F)cc4)n3)cc2)cc1 (stereo not drawn) [Compound 22]	A (50-100)	A (50-100)	B (Less than 80)
CC#CC(OC(=O)Nc1ccc(-c2ncn(-c3ccc(OC(F)(F)F)cc3)n2)cc1)c1ccccc1 (stereo not drawn) [Compound 72]	A (50-100)	A (50-100)	B (Less than 80)
CCC#CC(C)(C)OC(=O)Nc1ccc(-c2ncn(-c3ccc(OC(F)(F)F)cc3)n2)cc1 [Compound 96]	A (50-100)	A (50-100)	B (Less than 80)
CCCC(OC(=O)Nc1ccc(-c2ncn(-c3ccc(OC(F)(F)F)cc3)n2)cc1)c1ccccc1 (stereo not drawn) [Compound 74]	A (50-100)	A (50-100)	B (Less than 80)
CC(OC(=O)Nc1ccc(-c2ncn(-c3ccc(OC(F)(F)F)cc3)n2)cc1)c1ccccn1 (stereo not drawn) [Compound 46]	A (50-100)	A (50-100)	B (Less than 80)
CC(OC(=O)Nc1ccc(-c2ncn(-c3ccc(OC(F)(F)F)cc3)n2)cc1)C1CCCCC1 (stereo not drawn) [Compound 16]	B (Less than 50)	B (Less than 50)	B (Less than 80)
CC(OC(=O)Nc1ccc(-c2ncn(-c3ccc(OC(F)(F)F)cc3)n2)cc1)c1ccc(S(C)(=O)=O)cc1 (stereo not drawn) [Compound 75]	A (50-100)	A (50-100)	B (Less than 80)
Cc1cc(Cl)ccc1OC(=O)Nc1ccc(-c2ncn(-c3ccc(OC(F)(F)F)cc3)n2)cc1 [Compound 128]	A (50-100)	A (50-100)	B (Less than 80)
CC(OC(=O)Nc1ccc(-c2ncn(-c3ccc(OC(F)(F)F)cc3)n2)cc1)c1c(Cl)cccc1Cl (stereo not drawn) [Compound 73]	A (50-100)	A (50-100)	B (Less than 80)
CC(C)(Cc1ccccc1)OC(=O)Nc1ccc(-c2ncn(-c3ccc(OC(F)(F)F)cc3)n2)cc1 [Compound 11, {4-[1-(4-trifluoromethoxyphenyl)-1H-[1,2,4]triazol-3-yl]-phenyl}-carbamic acid 1,1-dimethyl-2-phenyl-ethyl ester]	A (50-100)	A (50-100)	B (Less than 80)
COCC(C)(C)OC(=O)Nc1ccc(-c2ncn(-c3ccc(OC(F)(F)F)cc3)n2)cc1 [Compound 5]	A (50-100)	A (50-100)	B (Less than 80)
CCCCCCC(C)OC(=O)Nc1ccc(-c2ncn(-c3ccc(OC(F)(F)F)cc3)n2)cc1 (stereo not drawn) [Compound 102]	B (Less than 50)	B (Less than 50)	B (Less than 80)
CCC(OC(=O)Nc1ccc(-c2ncn(-c3ccc(OC(F)(F)F)cc3)n2)cc1)c1ccc(F)cc1 (stereo not drawn) [Compound 79]	A (50-100)	A (50-100)	B (Less than 80)
O=C(Nc1ccc(-c2ncn(-c3ccc(OC(F)(F)F)cc3)n2)cc1)Oc1ccccc1C(F)(F)F [Compound 124]	A (50-100)	A (50-100)	B (Less than 80)
CC(C)(CCl)OC(=O)Nc1ccc(-c2ncn(-c3ccc(OC(F)(F)C(F)(F)F)cc3)n2)cc1 [Compound 32]	A (50-100)	A (50-100)	B (Less than 80)
Cc1ccc(C(C)OC(=O)Nc2ccc(-c3ncn(-c4ccc(OC(F)(F)F)cc4)n3)cc2)cc1 (stereo not drawn) [Compound 91]	A (50-100)	A (50-100)	B (Less than 80)
CC(OC(=O)Nc1ccc(-c2ncn(-c3ccc(OC(F)(F)F)cc3)n2)cc1)c1cccc(Cl)n1 (stereo not drawn) [Compound 120]	A (50-100)	A (50-100)	B (Less than 80)
Cc1ccc(OC(=O)Nc2ccc(-c3ncn(-c4ccc(OC(F)(F)F)cc4)n3)cc2)cn1 [Compound 123]	B (Less than 50)	B (Less than 50)	B (Less than 80)
CC(OC(=O)Nc1ccc(-c2ncn(-c3ccc(OC(F)(F)F)cc3)n2)cc1)c1c(F)c(F)c(F)c(F)c1F (stereo not drawn) [Compound 114]	B (Less than 50)	A (50-100)	B (Less than 80)
CCN(C(=O)OC(C)c1ccc(C(F)(F)F)nc1)c1ccc(-c2ncn(-c3ccc(OC(F)(F)F)cc3)n2)cc1 (stereo not drawn) [Compound 130, 1-(6-(trifluoromethyl)pyridin-3-yl)ethyl ethyl(4-(1-(4-(trifluoromethoxy)phenyl)-1H-1,2,4-triazol-3-yl)phenyl)carbamate]	A (50-100)	A (50-100)	B (Less than 80)
CC(OC(=O)Nc1ccc(-c2ncn(-c3ccc(OC(F)(F)C(F)(F)F)cc3)n2)cc1)c1ccc(C(F)(F)F)nc1 (stereo not drawn) [Compound 33]	A (50-100)	A (50-100)	B (Less than 80)
Cc1cc(C)c(CCOC(=O)Nc2ccc(-c3ncn(-c4ccc(OC(F)(F)F)cc4)n3)cc2)c(C)c1 [Compound 121]	A (50-100)	B (Less than 50)	B (Less than 80)
C#CC(OC(=O)Nc1ccc(-c2ncn(-c3ccc(OC(F)(F)F)cc3)n2)cc1)c1ccc(Cl)nc1 (stereo not drawn) [Compound 52]	A (50-100)	A (50-100)	B (Less than 80)
